Measured values: ChEMBL document CHEMBL1201862, “PubChem BioAssay data set” (2004)
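Following 48 hours of exposure in 96-well plates, responses at five concentrations were used to interpolate endpoints linearly. The concentration for 50% growth inhibition is given as GI50.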 Calls of active or inactive are those of the source. No stated cut-off is given here; in the data, active = GI50 up to about 1.1 µM and inactive = higher.

Assays:
Assay in all cases: growth of human tumour cells (NCI), 48 h
MOLT-4 = test system: MOLT-4
UACC-257 = test system: UACC-257
KM-20L2 = test system: KM-20L2
KM12 = test system: KM12
U-251 = test system: U-251
RPMI-8226 = test system: RPMI-8226
NCI-H23 = test system: NCI-H23
HOP-62 = test system: HOP-62
SNB-75 = test system: SNB-75
COLO 205 = test system: COLO 205
SK-MEL-28 = test system: SK-MEL-28
ACHN = test system: ACHN
DMS-114 = test system: DMS-114
SK-MEL-2 = test system: SK-MEL-2
M19-MEL = test system: M19-MEL
IGROV-1 = test system: IGROV-1
SK-OV-3 = test system: SK-OV-3
Malme-3M = test system: Malme-3M
HL-60 = test system: HL-60
SF-268 = test system: SF-268
K562 = test system: K562
UACC-62 = test system: UACC-62
OVCAR-5 = test system: OVCAR-5
CCRF-CEM = test system: CCRF-CEM
HCT-116 = test system: HCT-116
SF-295 = test system: SF-295
HT-29 = test system: HT-29
UO-31 = test system: UO-31
HCC 2998 = test system: HCC 2998
SF-539 = test system: SF-539
SR = test system: SR
LXFL 529 = test system: LXFL 529
SNB-78 = test system: SNB-78
NCI-H522 = test system: NCI-H522
OVCAR-3 = test system: OVCAR-3
SNB-19 = test system: SNB-19
OVCAR-4 = test system: OVCAR-4
M14 = test system: M14
NCI-H460 = test system: NCI-H460
A498 = test system: A498
HOP-92 = test system: HOP-92
786-0 = test system: 786-0
DLD-1 = test system: DLD-1
DMS-273 = test system: DMS-273
CAKI-1 = test system: CAKI-1
NCI-H226 = test system: NCI-H226
NCI/ADR-RES = test system: NCI/ADR-RES
RXF 393 = test system: RXF 393
SK-MEL-5 = test system: SK-MEL-5
MCF7 = test system: MCF7
HCT-15 = test system: HCT-15
LOX IMVI = test system: LOX IMVI
TK-10 = test system: TK-10
SW-620 = test system: SW-620
Hs-578T = test system: Hs-578T
EKVX = test system: EKVX
SN12C = test system: SN12C
MDA-MB-435 = test system: MDA-MB-435
BT-549 = test system: BT-549
PC-3 = test system: PC-3
T47D = test system: T47D
DU-145 = test system: DU-145
OVCAR-8 = test system: OVCAR-8
MDA-MB-231 = test system: MDA-MB-231
A549 = test system: A549
MDA-N = test system: MDA-N

Measured: GI50

CCN(CC)CCCC(C)Nc1cc(-c2ccccc2)nc2cc(OC)ccc12 (centres undefined)
inactive: MOLT-4 2.14 µM | UACC-257 17.4 µM | KM-20L2 2.25 µM | KM12 5.33 µM | U-251 4.22 µM | RPMI-8226 2.07 µM | NCI-H23 15.4 µM | HOP-62 5.25 µM | SNB-75 11.8 µM | COLO 205 2.91 µM | SK-MEL-28 6.22 µM | ACHN 6.53 µM | DMS-114 6.68 µM | SK-MEL-2 12.6 µM | M19-MEL 10.1 µM | IGROV-1 13.2 µM | SK-OV-3 16.3 µM | Malme-3M 10.4 µM | HL-60 2.55 µM | SF-268 12.8 µM | UACC-62 17.6 µM | OVCAR-5 2.48 µM | CCRF-CEM 1.3 µM | HCT-116 2.84 µM | SF-295 8.79 µM | HT-29 1.94 µM | UO-31 2.54 µM | HCC 2998 1.15 µM | SF-539 3.05 µM | SR 2.71 µM | LXFL 529 6.28 µM | SNB-78 3.21 µM | NCI-H522 6.44 µM | OVCAR-3 12.2 µM | SNB-19 > 10 µM | OVCAR-4 4.88 µM | M14 1.84 µM | NCI-H460 2.92 µM | A498 5.61 µM | HOP-92 2.23 µM
active: K562 0.8 µM

Cc1c2cc(Cl)ccc2n2c(=O)c3ccccc3[nH]c(=O)c12
inactive: MOLT-4 42.9 µM | RPMI-8226 > 100 µM | 786-0 41.5 µM | NCI-H23 > 100 µM | HOP-62 31.2 µM | SNB-75 59.6 µM | COLO 205 > 100 µM | SK-MEL-28 > 100 µM | DLD-1 > 100 µM | DMS-114 > 100 µM | SK-MEL-2 > 100 µM | M19-MEL > 100 µM | IGROV-1 > 100 µM | SK-OV-3 > 100 µM | Malme-3M > 100 µM | HL-60 > 10 µM | SF-268 > 100 µM | K562 50.1 µM | UACC-62 > 100 µM | CCRF-CEM 36.1 µM | HCT-116 69.2 µM | DMS-273 > 100 µM | UO-31 > 100 µM | HCC 2998 > 100 µM | CAKI-1 > 100 µM | SF-539 78.2 µM | SR 45.3 µM | LXFL 529 > 100 µM | SNB-78 > 100 µM | NCI-H522 > 100 µM | OVCAR-4 49.8 µM | NCI-H226 > 100 µM | M14 > 100 µM | HOP-92 > 100 µM

N#CC1(C#N)C2C=CC(C3CCC=C32)C1(C#N)C#N (centres undefined)
> 10 µM: HCT-15
inactive: MOLT-4 2.14 µM | NCI/ADR-RES > 10 µM | UACC-257 > 10 µM | KM12 > 10 µM | U-251 > 10 µM | RPMI-8226 2.83 µM | 786-0 > 5.66 µM | NCI-H23 > 10 µM | HOP-62 > 10 µM | SNB-75 > 10 µM | COLO 205 1.94 µM | SK-MEL-28 > 10 µM | RXF 393 > 10 µM | SK-MEL-5 > 10 µM | MCF7 > 8.2 µM | ACHN > 6.37 µM | LOX IMVI > 10 µM | SK-MEL-2 > 10 µM | TK-10 > 5.7 µM | IGROV-1 > 10 µM | SK-OV-3 > 10 µM | Malme-3M 2.57 µM | HL-60 1.68 µM | SW-620 1.77 µM | SF-268 > 10 µM | Hs-578T > 10 µM | K562 3.37 µM | UACC-62 > 10 µM | EKVX > 10 µM | OVCAR-5 > 10 µM | CCRF-CEM 1.91 µM | SN12C > 10 µM | MDA-MB-435 > 10 µM | HCT-116 > 6.56 µM | BT-549 > 10 µM | SF-295 > 10 µM | PC-3 > 10 µM | HT-29 > 10 µM | UO-31 > 4.32 µM | HCC 2998 > 10 µM | CAKI-1 6.37 µM | SF-539 > 10 µM | SR 7.4 µM | NCI-H522 2.96 µM | T47D > 5.33 µM | DU-145 > 10 µM | OVCAR-3 > 10 µM | SNB-19 > 10 µM | OVCAR-8 > 10 µM | OVCAR-4 > 10 µM | NCI-H226 > 10 µM | MDA-MB-231 > 10 µM | M14 5.79 µM | NCI-H460 > 10 µM | A498 > 10 µM | A549 > 10 µM | HOP-92 > 10 µM | MDA-N > 10 µM
